From patent US20230104936A1, “TRPML MODULATORS” (Casma Therapeutics, Inc., priority 2019, published 2023)

System: TFEB
Test: TFEB nuclear translocation assay, HeLa wt cells
Assay type: cell-based
Conditions: Homo sapiens, HeLa, 2 h, 2 hrs compound treatment, Table 1 does not say HeLa wt or TRPML1 KO
Summary of the method: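 Read-out is the ratio of TFEB immunofluorescence in the nucleus to that in a ring just outside it, measured by automated imaging. HeLa wt cells received compounds for 2 hrs at 37° C before fixation and staining; AC50 values come from this ratio.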

| SMILES | AC50 |
| --- | --- |
| CC1(C)CC2(CCN(c3ccccc3NS(=O)(=O)c3ccc(S(C)(=O)=O)cc3)CC2)CO1 [Compound A-693, N-(2-{3,3-dimethyl-2-oxa-8-azaspiro[4.5]decan-8-yl}phenyl)-4-methanesulfonylbenzene-1-sulfonamide] | 2.01 to 8 µM |
| COCC1(C)CCN(c2cc(F)ccc2NS(=O)(=O)c2ccc(S(=O)(=O)N(C)C)cc2)CC1 [Compound A-694, N4-{4-fluoro-2-[4-(methoxymethyl)-4-methylpiperidin-1-yl]phenyl}-N1,N1-dimethylbenzene-1,4-disulfonamide] | ≤ 2 µM |
| COCC1(C)CCN(c2ccc(F)cc2NS(=O)(=O)c2ccc(S(=O)(=O)N(C)C)cc2)CC1 [Compound A-695, N4-{5-fluoro-2-[4-(methoxymethyl)-4-methylpiperidin-1-yl]phenyl}-N1,N1-dimethylbenzene-1,4-disulfonamide] | ≤ 2 µM |
| CN(C)S(=O)(=O)c1ccc(S(=O)(=O)Nc2ccccc2N2CCC(COC(F)(F)F)CC2)cc1 [Compound A-696, N1,N1-dimethyl-N4-(2-{4-[(trifluoromethoxy)methyl]piperidin-1-yl}phenyl)benzene-1,4-disulfonamide] | ≤ 2 µM |
| COCC1(C)CCN(c2ccccc2NS(=O)(=O)c2ccc(S(C)(=O)=O)cc2)CC1 [Compound A-697, 4-methanesulfonyl-N-{2-[4-(methoxymethyl)-4-methylpiperidin-1-yl]phenyl}benzene-1-sulfonamide] | 2.01 to 8 µM |
| CC1(C)CC2(CCN(c3ccccc3NS(=O)(=O)c3ccc4c(c3)COC4(C)C)CC2)CO1 [Compound A-700, N-(2-{3,3-dimethyl-2-oxa-8-azaspiro[4.5]decan-8-yl}phenyl)-1,1-dimethyl-1,3-dihydro-2-benzofuran-5-sulfonamide] | 2.01 to 8 µM |
| COCCS(=O)(=O)c1ccc(S(=O)(=O)Nc2ccccc2N2CCC(c3ccc(Cl)cc3F)CC2)cc1 [Compound A-701, N-{2-[4-(4-chloro-2-fluorophenyl)piperidin-1-yl]phenyl}-4-(2-methoxyethanesulfonyl)benzene-1-sulfonamide] | ≤ 2 µM |
| CC1(C)CC2(CCN(c3c(F)cccc3NS(=O)(=O)Cc3ccccc3)CC2)CO1 [Compound A-702, N-(2-{3,3-dimethyl-2-oxa-8-azaspiro[4.5]decan-8-yl}-3-fluorophenyl)-1-phenylmethanesulfonamide] | ≤ 2 µM |
| CCOC(=O)CC1(F)CCN(c2ccccc2NS(=O)(=O)c2ccc(S(=O)(=O)N(C)C)cc2)CC1 [Compound A-703, ethyl 2-(1-{2-[4-(dimethylsulfamoyl)benzenesulfonamido]phenyl}-4-fluoropiperidin-4-yl)acetate] | ≤ 2 µM |
| CC1(C)CC2(CCN(c3ccccc3NS(=O)(=O)c3ccc4c(c3)OC(C)(C)O4)CC2)CO1 [Compound A-704, N-(2-{3,3-dimethyl-2-oxa-8-azaspiro[4.5]decan-8-yl}phenyl)-2,2-dimethyl-2H-1,3-benzodioxole-5-sulfonamide] | ≤ 2 µM |
| COCC1(C)CCN(c2ccccc2NS(=O)(=O)c2ccc(C(C)(C)C(=O)OC)cc2)CC1 [Compound A-705, methyl 2-[4-({2-[4-(methoxymethyl)-4-methylpiperidin-1-yl]phenyl}sulfamoyl)phenyl]-2-methylpropanoate] | 8.01 to 9.99 µM |
| COCC1(C)CCN(c2ccccc2NS(=O)(=O)c2ccc(C(C)C)cc2)CC1 [Compound A-706, N-{2-[4-(methoxymethyl)-4-methylpiperidin-1-yl]phenyl}-4-(propan-2-yl)benzene-1-sulfonamide] | ≤ 2 µM |
| COCC1(C)CCN(c2ccccc2NS(=O)(=O)c2ccc3c(c2)CC(OC)C3)CC1 (stereo not shown) [Compound A-707, 2-methoxy-N-{2-[4-(methoxymethyl)-4-methylpiperidin-1-yl]phenyl}-2,3-dihydro-1H-indene-5-sulfonamide] | 2.01 to 8 µM |
| COCC1(C)CCN(c2ccccc2NS(=O)(=O)c2ccc(C3CC3)s2)CC1 [Compound A-708, 5-cyclopropyl-N-{2-[4-(methoxymethyl)-4-methylpiperidin-1-yl]phenyl}thiophene-2-sulfonamide] | ≤ 2 µM |
| COCC1(C)CCN(c2ccccc2NS(=O)(=O)Cc2ccc(C)cc2F)CC1 [Compound A-709, 1-(2-fluoro-4-methylphenyl)-N-{2-[4-(methoxymethyl)-4-methylpiperidin-1-yl]phenyl}methanesulfonamide] | 2.01 to 8 µM |
| COC(=O)C(C)(C)c1ccc(S(=O)(=O)Nc2ccccc2N2CCC3(CC2)COC(C)(C)C3)cc1 [Compound A-710, methyl 2-{4-[(2-{3,3-dimethyl-2-oxa-8-azaspiro[4.5]decan-8-yl}phenyl)sulfamoyl]phenyl}-2-methylpropanoate] | 8.01 to 9.99 µM |
| Cc1ccc(CS(=O)(=O)Nc2ccccc2N2CCC3(CC2)COC(C)(C)C3)cc1 [Compound A-711, N-(2-{3,3-dimethyl-2-oxa-8-azaspiro[4.5]decan-8-yl}phenyl)-1-(4-methylphenyl)methanesulfonamide] | ≤ 2 µM |
| CC1(C)CC2(CCN(c3ccccc3NS(=O)(=O)Cc3ccc4c(c3)COCC4)CC2)CO1 [Compound A-712, 1-(3,4-dihydro-1H-2-benzopyran-7-yl)-N-(2-{3,3-dimethyl-2-oxa-8-azaspiro[4.5]decan-8-yl}phenyl)methanesulfonamide] | 2.01 to 8 µM |
| CC1(C)CC2(CCN(c3ccccc3NS(=O)(=O)c3ccc4c(c3)CCC4)CC2)CO1 [Compound A-713, N-(2-{3,3-dimethyl-2-oxa-8-azaspiro[4.5]decan-8-yl}phenyl)-2,3-dihydro-1H-indene-5-sulfonamide] | ≤ 2 µM |
| CC1(C)CC2(CCN(c3ccccc3NS(=O)(=O)c3ccc4c(c3)COC4)CC2)CO1 [Compound A-714, N-(2-{3,3-dimethyl-2-oxa-8-azaspiro[4.5]decan-8-yl}phenyl)-1,3-dihydro-2-benzofuran-5-sulfonamide] | 8.01 to 9.99 µM |
| CC1(C)CC2(CCN(c3ccccc3NS(=O)(=O)c3ccc4c(c3)COCC4)CC2)CO1 [Compound A-715, N-(2-{3,3-dimethyl-2-oxa-8-azaspiro[4.5]decan-8-yl}phenyl)-3,4-dihydro-1H-2-benzopyran-7-sulfonamide] | ≤ 2 µM |
| CC1(C)CC2(CCN(c3ccccc3NS(=O)(=O)Cc3ccc(C(F)F)cc3)CC2)CO1 [Compound A-716, 1-[4-(difluoromethyl)phenyl]-N-(2-{3,3-dimethyl-2-oxa-8-azaspiro[4.5]decan-8-yl}phenyl)methanesulfonamide] | 2.01 to 8 µM |
| CC1(C)CC2(CCN(c3ccccc3NS(=O)(=O)C3(c4ccccc4)CC3)CC2)CO1 [Compound A-717, N-(2-{3,3-dimethyl-2-oxa-8-azaspiro[4.5]decan-8-yl}phenyl)-1-phenylcyclopropane-1-sulfonamide] | 2.01 to 8 µM |
| CC1(C)CC2(CCN(c3ccccc3NS(=O)(=O)c3ccc(C4CC4(F)F)cc3)CC2)CO1 (stereo not shown) [Compound A-718, 4-(2,2-difluorocyclopropyl)-N-(2-{3,3-dimethyl-2-oxa-8-azaspiro[4.5]decan-8-yl}phenyl)benzene-1-sulfonamide] | ≤ 2 µM |
| CCOCC1(C)CCN(c2ccccc2NS(=O)(=O)c2ccc(S(=O)(=O)N(C)C)cc2)CC1 [Compound A-719, N4-{2-[4-(ethoxymethyl)-4-methylpiperidin-1-yl]phenyl}-N1,N1-dimethylbenzene-1,4-disulfonamide] | ≤ 2 µM |
